Assay results from DBAASP.
Values after ≈ are worked out from the molar mass of the structure shown. One block for each compound: values may come before it.

Columns and labels:
Assay in all cases: ≥ marks a high value that may be exact or a test limit, other limits are often not marked, values filed in µg/mL are converted to µM
[1] = test system: Candida albicans CIB 45437
[2] = test system: Escherichia coli ATCC 25922
[3] = test system: Escherichia coli CIB 84492
[4] = test system: Staphylococcus aureus ATCC 25923
[5] = test system: Staphylococcus aureus CIB 85462
[6] = test system: Acinetobacter baumannii I NM8
[7] = test system: Escherichia coli ATCC 25726
[8] = test system: Klebsiella pneumoniae ATCC 700603
[9] = test system: Batrachochytrium dendrobatidis JEL-197
[10] = test system: Acinetobacter baumannii ATCC 19606
[11] = test system: Bordetella bronchiseptica CUN 11844-99
[12] = test system: Pseudomonas aeruginosa ATCC 27853
[13] = test system: Pseudomonas aeruginosa CUN 4158-02
[14] = test system: Staphylococcus aureus ATCC 43300
[15] = test system: Staphylococcus aureus CUN 3792-99
[16] = test system: Stenotrophomonas maltophilia CUN 3998-00
[17] = test system: Candida albicans ATCC 90028
[18] = test system: Enterobacter cloacae NHTCC 53001
[19] = test system: Klebsiella pneumoniae KK3 9904
[20] = test system: Staphylococcus aureus NCTC 8325
[21] = test system: Bacillus cereus AS1.126
[22] = test system: Bacillus cereus
[23] = test system: Candida albicans CMCC 98001
[24] = test system: Enterobacter cloacae CGMCC 1.58
[25] = test system: Enterococcus faecalis CGMCC 1.595
[26] = test system: Enterococcus faecium CGMCC 1.2334
[27] = test system: Escherichia coli AS1.349
[28] = test system: Escherichia coli ATCC 11775
[29] = test system: Escherichia coli
[30] = test system: Fusobacterium nucleatum CGMCC 1.2526
[31] = test system: Klebsiella aerogenes CGMCC 1.876
[32] = test system: Klebsiella pneumoniae subsp. pneumoniae CGMCC 1.176
[33] = test system: Lactobacillus acidophilus CGMCC 1.1854
[34] = test system: Lactococcus lactis AS1.1690
[35] = test system: Lactococcus lactis
[36] = test system: Pseudomonas aeruginosa CGMCC 1.860
[37] = test system: Staphylococcus aureus AS1.72
[38] = test system: Staphylococcus aureus ATCC 12600
[39] = test system: Staphylococcus aureus
[40] = test system: Streptococcus mutans CGMCC 1.2500
[41] = test system: Streptococcus salivarius CGMCC 1.2498
[42] = test system: Streptococcus sanguinis CGMCC 1.2497

MIC [1]: ≥ 50 µM
MIC [2]: 50 µM (≈ 128 µg/mL)
MIC [3]: 25 µM (≈ 64 µg/mL)
MIC [4]: 6.25 µM (≈ 16 µg/mL)
MIC [5]: 12.5 µM (≈ 32 µg/mL)
Structure (SMILES): CC[C@H](C)[C@@H]1NC(=O)[C@H](C)NC(=O)[C@@H](NC(=O)[C@H](Cc2ccccc2)NC(=O)[C@@H](NC(=O)[C@@H](NC(=O)[C@@H]2CCCN2C(=O)[C@H](CC(C)C)NC(=O)[C@@H](NC(=O)[C@H](CC(N)=O)NC(=O)[C@H](C)NC(=O)[C@H](C)NC(=O)[C@@H](NC(=O)[C@H](CCCN=C(N)N)NC(=O)[C@@H](NC(=O)[C@@H](NC(=O)[C@H](C)NC(=O)[C@@H]2CCCN2C(=O)[C@H](CC(C)C)NC(=O)[C@@H](N)Cc2ccccc2)C(C)C)[C@@H](C)CC)C(C)C)C(C)C)[C@@H](C)O)C(C)C)CSSC[C@@H](C(=O)O)NC(=O)[C@H](CCCCN)NC(=O)[C@H](CCCCN)NC(=O)[C@H](CO)NC1=O [FLPAVIRVAANVLPTVFCAISKKC]

MIC [6]: 12.5 µM (≈ 33.1 µg/mL)
MIC [7]: ≥ 50 µM
MIC [8]: > 50 µM
MIC [4]: > 100 µM
Structure (SMILES): CC(C)C[C@H](NC(=O)CNC(=O)CNC(=O)[C@H](CCCCN)NC(=O)[C@H](C)NC(=O)[C@H](Cc1ccccc1)NC(=O)[C@H](CCCCN)NC(=O)[C@H](CCCCN)NC(=O)[C@H](CC(C)C)NC(=O)CNC(=O)[C@H](CCC(=O)O)NC(=O)[C@H](CC(C)C)NC(=O)[C@H](C)NC(=O)[C@H](CO)NC(=O)[C@H](CO)NC(=O)[C@H](Cc1c[nH]c2ccccc12)NC(=O)[C@H](Cc1ccccc1)NC(=O)CN)C(=O)N[C@@H](CCC(=O)O)C(=O)N[C@@H](C)C(=O)N[C@@H](CC(C)C)C(=O)N[C@H](C(=O)N[C@@H](CC(N)=O)C(=O)N1CCC[C@H]1C(=O)N[C@@H](CCCCN)C(=O)O)[C@@H](C)O [GFWSSALEGLKKFAKGGLEALTNPK]

MIC [9]: ≥ 50 µM
MIC [7]: ≥ 50 µM
MIC [4]: 100 µM (≈ 339 µg/mL)
Structure (SMILES): CC[C@H](C)[C@H](NC(=O)CN)C(=O)N[C@@H](CC(C)C)C(=O)N[C@@H](CC(=O)O)C(=O)N[C@H](C(=O)N[C@@H](Cc1ccccc1)C(=O)N[C@@H](CCCCN)C(=O)NCC(=O)N[C@H](C(=O)N[C@@H](C)C(=O)N[C@@H](CCCCN)C(=O)NCC(=O)N[C@H](C(=O)N[C@@H](C)C(=O)N[C@@H](CCCCN)C(=O)N[C@@H](CC(=O)O)C(=O)N[C@@H](CC(C)C)C(=O)N[C@@H](C)C(=O)N[C@H](C(=O)N[C@@H](Cc1cnc[nH]1)C(=O)N[C@@H](CCSC)C(=O)N[C@@H](CC(C)C)C(=O)N[C@@H](CCC(=O)O)C(=O)N[C@@H](CC(N)=O)C(=O)N[C@@H](CC(C)C)C(=O)N[C@@H](CCCCN)C(=O)N[C@H]1CSSC[C@@H](C(=O)O)NC(=O)CNC(=O)[C@H]([C@@H](C)O)NC(=O)[C@H](CCSC)NC(=O)[C@H](CCCCN)NC1=O)C(C)C)C(C)C)C(C)C)[C@@H](C)O [GILDTFKGVAKGVAKDLAVHMLENLKCKMTGC]

MIC [10]: 6.06 µM (≈ 16 µg/mL)
MIC [11]: 3.03 µM (≈ 8 µg/mL)
MIC [2]: 388 µM (≈ 1020 µg/mL)
MIC [12]: 3.03 µM (≈ 8 µg/mL)
MIC [13]: 12.1 µM (≈ 32 µg/mL)
MIC [4]: 388 µM (≈ 1020 µg/mL)
MIC [14]: 6.06 µM (≈ 16 µg/mL)
MIC [15]: 6.06 µM (≈ 16 µg/mL)
MIC [16]: 24.3 µM (≈ 64 µg/mL)
Structure (SMILES): NCCCC[C@H](NC(=O)CNC(=O)[C@H](CCCCN)NC(=O)[C@H](Cc1ccccc1)NC(=O)[C@H](CCCCN)NC(=O)[C@H](Cc1c[nH]c2ccccc12)NC(=O)[C@H](Cc1ccccc1)NC(=O)[C@H](CCCN=C(N)N)NC(=O)[C@H](CCCN=C(N)N)NC(=O)[C@H](Cc1ccc(O)cc1)NC(=O)[C@H](CCCCN)NC(=O)[C@H](CCCCN)NC(=O)CN)C(=O)N[C@@H](Cc1c[nH]c2ccccc12)C(=O)N[C@@H](Cc1ccccc1)C(=O)N[C@@H](Cc1c[nH]c2ccccc12)C(=O)N[C@@H](Cc1ccccc1)C(=O)N[C@@H](Cc1c[nH]c2ccccc12)C(=O)NCC(N)=O [GKKYRRFWKFKGKWFWFWG]

MIC [17]: ≥ 100 µM
MIC [18]: 6 µM (≈ 22.9 µg/mL)
MIC [2]: 3 µM (≈ 11.4 µg/mL)
MIC [19]: 12 µM (≈ 45.8 µg/mL)
MIC [12]: 6 µM (≈ 22.9 µg/mL)
MIC [20]: 25 µM (≈ 95.4 µg/mL)
Structure (SMILES): CC[C@H](C)[C@@H]1NC(=O)[C@H](CCCCN)NC(=O)[C@@H](NC(=O)[C@H](CCCCN)NC(=O)[C@H](C)NC(=O)[C@H](CCC(N)=O)NC(=O)[C@H](CC(=O)O)NC(=O)[C@H](CC(C)C)NC(=O)[C@H](CC(C)C)NC(=O)[C@H](CO)NC(=O)CNC(=O)CNC(=O)[C@@H](NC(=O)[C@H](CC(N)=O)NC(=O)[C@H](CCCCN)NC(=O)[C@H](Cc2ccccc2)NC(=O)[C@@H](NC(=O)[C@H](Cc2cnc[nH]2)NC(=O)[C@H](CCCCN)NC(=O)CNC(=O)[C@H](C)NC(=O)[C@@H](NC(=O)[C@H](CCCCN)NC(=O)[C@H](CC(C)C)NC(=O)[C@@H](NC(=O)CNC(=O)[C@H](CCCCN)NC(=O)[C@@H](NC(=O)[C@@H](NC(=O)[C@H](CO)NC(=O)[C@H](CCSC)NC(=O)[C@H](CC(C)C)NC(=O)CN)C(C)C)[C@@H](C)O)C(C)C)[C@@H](C)O)[C@@H](C)CC)C(C)C)CSSC[C@@H](C(=O)O)NC(=O)[C@H](CCC(N)=O)NC(=O)CNC(=O)[C@H](CO)NC1=O [GLMSVTKGVLKTAGKHIFKNVGGSLLDQAKCKISGQC]

MIC [21]: ≥ 62.5 µM
MIC [22]: ≥ 41 µM
MIC [23]: ≥ 50 µM
MIC [24]: ≥ 250 µM
MIC [25]: ≥ 125 µM
MIC [26]: ≥ 125 µM
MIC [27]: ≥ 125 µM
MIC [28]: ≥ 100 µM
MIC [29]: > 100 µM
MIC [30]: ≥ 75 µM
MIC [31]: ≥ 250 µM
MIC [32]: ≥ 175 µM
MIC [33]: ≥ 37.5 µM
MIC [34]: ≥ 62.5 µM
MIC [35]: ≥ 41 µM
MIC [36]: ≥ 125 µM
MIC [37]: ≥ 62.5 µM
MIC [38]: ≥ 100 µM
MIC [39]: 41 µM (≈ 50 µg/mL)
MIC [40]: ≥ 50 µM
MIC [41]: ≥ 75 µM
MIC [42]: ≥ 37.5 µM
Structure (SMILES): CC[C@H](C)[C@H](N)C(=O)N[C@@H](CC(C)C)C(=O)N1CCC[C@H]1C(=O)N[C@H](C(=O)N[C@@H](CC(C)C)C(=O)N[C@@H](CO)C(=O)N[C@@H](CC(C)C)C(=O)N[C@H](C(=O)NCC(=O)NCC(=O)N[C@@H](CC(C)C)C(=O)N[C@@H](CC(C)C)C(N)=O)[C@@H](C)CC)[C@@H](C)CC [ILPILSLIGGLL]
